The text below walks through data of ChEMBL document CHEMBL2440108, “Synthesis and enzymatic evaluation of phosphoramidon and its β anomer: Anomerization of α-l-rhamnose triacetate upon phosphitylation” (Bioorg Med Chem, 2013).

In experiment [1] the target is T1, Thermolysin (Bacillus thermoproteolyticus, UniProt P00800).
T1 sequence (P00800 whole entry): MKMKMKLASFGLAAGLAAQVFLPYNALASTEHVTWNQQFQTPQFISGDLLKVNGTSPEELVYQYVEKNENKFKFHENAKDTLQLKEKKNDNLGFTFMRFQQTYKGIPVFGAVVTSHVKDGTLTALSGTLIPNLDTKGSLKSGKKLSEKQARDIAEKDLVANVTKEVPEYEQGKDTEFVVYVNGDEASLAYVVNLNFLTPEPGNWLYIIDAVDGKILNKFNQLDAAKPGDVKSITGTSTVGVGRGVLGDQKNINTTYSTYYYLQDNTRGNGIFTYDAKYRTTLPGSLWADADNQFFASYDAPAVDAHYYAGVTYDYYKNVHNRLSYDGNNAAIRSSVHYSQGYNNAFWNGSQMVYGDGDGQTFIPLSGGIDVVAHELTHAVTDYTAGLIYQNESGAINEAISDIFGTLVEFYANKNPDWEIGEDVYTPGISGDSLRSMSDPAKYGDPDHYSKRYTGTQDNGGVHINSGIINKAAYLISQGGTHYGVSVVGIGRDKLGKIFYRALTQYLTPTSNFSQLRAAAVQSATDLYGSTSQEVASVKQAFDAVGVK
Nature of the experiment: Inhibition of Bacillus thermoproteolyticus thermolysin using […] as substrate at pH 7.5 after 15 mins by Henderson plot analysis.

Experiment [2] in a line: Inhibition of endothelin-converting enzyme (unknown origin). Also on record: species or system Homo sapiens.
Experiment [3] addresses T1, Thermolysin. In words: Inhibition of Bacillus thermoproteolyticus thermolysin.
The target in experiment [4] is T1, Thermolysin. Nature of the experiment: Binding affinity to Bacillus thermoproteolyticus thermolysin at pH 7.5 after 15 mins by fluorescence spectrophotometry.

Usually Ki stands for the dissociation constant of the complex between target and ligand, obtained from inhibition or displacement. Usually IC50 stands for the concentration that gives 50% inhibition. A low value points to greater potency. For `CC(C)C[C@H](NP(=O)(O)O[C@@H]1O[C@@H](C)[C@H](O)[C@@H](O)[C@H]1O)C(=O)N[C@@H](Cc1c[nH]c2ccccc12)C(=O)O`, the Ki came to 30 nM at Thermolysin [1] and 32 nM on Thermolysin [3]. The same compound came in with a half-maximal inhibitory concentration (IC50) in experiment [2] of 690 nM.

Broadly, the Kd is the concentration at which binding is half-saturated. At Thermolysin [1], `CC(C)C[C@H](NP(=O)(O)O[C@H]1O[C@@H](C)[C@H](O)[C@@H](O)[C@H]1O)C(=O)N[C@@H](Cc1c[nH]c2ccccc12)C(=O)O` displayed a Ki of 280 nM. On Thermolysin [4], the Kd came out at 210 nM.
